13 molecules from patent publication US20090100532A1, “TRANSGENIC MICE EXPRESSING HYPERSENSITIVE NICOTINIC RECEPTORS” (CALIFORNIA INSTITUTE OF TECHNOLOGY, priority 2007, published 2009) can be followed below.

For one assay, the system named is nAChRs. It counts as biochemical, mouse. Conditions: for EC50: read-out: EC50 (±SEM), Total DA release. The protocol:
(§1) Neurotransmitter Release from Striatal Synaptosomes. After a mouse was sacrificed by cervical dislocation, its brain was removed and placed immediately on an ice-cold platform and brain regions were dissected. Tissues from each mouse were homogenized in 0.5 ml of ice-cold 0.32 M sucrose buffered with 5 mM HEPES, pH 7.5. A crude synaptosomal pellet was prepared by centrifugation at 12,000 g for 20 min. The pellets were resuspended in “uptake buffer”: 128 mM NaCl, 2.4 mM KCl, 3.2 mM CaCl2, 1.2 mM KH2PO4, 1.2 mM MgSO4, 25 mM HEPES, pH 7.5, 10 mM glucose. For DA uptake, buffer was supplemented with 1 mM ascorbic acid and 0.01 mM pargyline, whereas for GABA uptake, buffer was supplemented with 1 mM aminooxyacetic acid. For [^3H]GABA uptake, synaptosomes were incubated for 10 min at 37° C. […] For DA uptake, synaptosomes were incubated at 37° C. in uptake buffer for 10 min before addition of 100 nM [^3H]dopamine (1 μCi for every 0.2 ml of synaptosomes), and the suspension was incubated for an additional 5 min.
(§2) All experiments were conducted at room temperature using methods described previously (Nashmi et al., 2007; Salminen et al., 2007) with modifications for collection into 96-well plates. In brief, aliquots of synaptosomes (80 μl) were distributed onto filters and perfused with buffer (uptake buffer containing 0.1% bovine serum albumin and 1 μM atropine with 1 μM nomifensine (for DA release) or 0.1 μM NNC-711 [1-(2-(((diphenylmethylene)amino)oxy)ethyl)-1,2,5,6-tetrahydro-3-pyridinecarboxylic acid hydrochloride]) (for GABA release) at 0.7 ml/min for 10 min, or buffer for 5 min followed by buffer with 50 nM αCtxMII. […] Fractions (−0.1 ml) were collected for 4 min into 96-well plates every 10 sec starting from 1 min before stimulation, using a Gilson FC204 fraction collector with a multicolumn adapter (Gilson, Inc.; Middleton, Wis.). Radioactivity was determined by scintillation counting using a 1450 MicroBeta Trilux scintillation counter (Perkin Elmer Life Sciences-Wallac Oy; Turku, Finland) after addition of 0.15 ml Optiphase ‘SuperMix’ scintillation cocktail. Instrument efficiency was 40%.
(§3) Data were analyzed using SigmaPlot 5.0 for DOS. Perfusion data were plotted as counts per minute versus fraction number. Fractions collected before and after the peak were used to calculate baseline as a single exponential decay. The calculated baseline was subtracted from the experimental data. Fractions that exceeded baseline by 10% or more were sunmmed to give total released cpm and then normalized to baseline to give units of release [(cpm-baseline)/baseline]. Agonist dose response data were fit to the Hill equation.

The subject of a further assay is α6^L9′S mice. Conditions: mouse, in vivo. How it is done:
(§4) Locomotor Activity. Mice used to study locomotion were eight to sixteen weeks old by the beginning of an experiment, and were back-crossed to C57BL/6 at least three times. […] Mouse horizontal locomotor activity was measured with an infrared photobeam activity cage system (San Diego Instruments; San Diego, Calif.). Ambulation events were recorded when two contiguous photobeams were broken in succession. Acute locomotor activity in response to nicotinic ligands or other agents was studied by recording ambulation events during four 15 sec intervals per minute for a designated number of minutes. For most experiments, groups of eight mice were placed in the activity cages (18×28 cm) and their baseline level of activity was recorded for eight minutes. Mice were removed from their cage, injected (100 μl per 25 g body mass), and returned to the cage within 15 sec. […] For generation of locomotor activity concentration-response relationship profiles, a group of mice was administered saline and, after five to eight days off, each successive dose of drug. […] For 48 h home cage monitoring, mice were isolated in their own cage and habituated to the test room and cage for 24 h. Following this, locomotor activity was recorded in 15 min intervals for 48 h.

The test system of the next assay is WT mice. The following applies: mouse, in vivo. The protocol:
as §4

For assay [1], the target named is hypersensitive nicotinic receptors in α6L9′S VTA DA neurons (Mus musculus, UniProt Q9ERK7+Q9R0W9, L280S). Type of assay: cell-based.
Assay [2] has as its target tonically active α6^L9′S channels in VTA DA neurons (Mus musculus, UniProt Q9ERK7+Q9R0W9, L280S). It counts as cell-based.
Another assay concerns the target T1, α4β2* (non-α6) nAChRs (Mus musculus, UniProt O70174+Q9ERK7).
T1 construct: from tissue; host or cells: striatal / olfactory tubercle synaptosomes of WT and α6L9′S mice
Put plainly: biochemical. It counts as biochemical. The following applies: for EC50: read-out: EC50 (±SEM), MII-resistant DA release. How it is done:
as §1, §2, §3

The target in assay [3] is T2, α6* nAChRs (Mus musculus, UniProt Q9ERK7+Q9R0W9).
T2 construct: from tissue
Put plainly: biochemical. It counts as biochemical. The protocol:
as §1, §2, §3

Assay [4] has as its target T3, α6* nAChRs (Mus musculus, UniProt Q9ERK7+Q9R0W9, L280S).
T3 construct: from tissue
Put plainly: biochemical. Type of assay: biochemical. The protocol:
as §1, §2, §3

In another assay the test system is N2a cells. Put plainly: TIRF imaging of actin-containing membrane protrusions in N2a cells. Type of assay: cell-based, mouse. The protocol:
TIRF Microscopy. N2a cells cultured in glass-bottomed, polyethylenimine-coated imaging dishes were transfected with cDNA mixtures as described above. Cells, superfused with the same imaging solution used for confocal microscopy, were imaged 18 to 24 h after transfection to minimize overexpression artifacts. TIRF images were obtained with an inverted microscope (Olympus IX71; Olympus America, Inc., Center Valley, Pa.) equipped with a 488-nm air-cooled argon laser (P/N IMA111040ALS; Melles Griot, Carlsbad, Calif.). Laser output was controlled with a UNIBLITZ shutter system and drive unit (P/N VMM-D1; Vincent Associates, Rochester, N.Y.) equipped with a Mitutoyo (Mitutoyo America, City of Industry, CA) micrometer to control TIRF evanescent field illumination. TIRF imaging was carried out with an Olympus PlanApo 100×1.45 NA oil objective, and images were captured with a 16-bit resolution Photometrics Cascade charge-coupled device camera (Photometrics, Tucson, Ariz.) controlled by SlideBook 4.0 imaging software (Intelligent Imaging Innovations, Santa Monica, Calif.).

For another assay, the system named is LC neurons (α6* nAChRs). It counts as cell-based, mouse.

Several values for one entry are separate records, joined by “and”; a condition that tells them apart may be missing. Equal values may be shown once. Read-outs that look alike come from different tables or passages of the source.

In general, EC50 refers to the concentration giving half of the maximal effect.

T1 sequence (Q9ERK7 26-501): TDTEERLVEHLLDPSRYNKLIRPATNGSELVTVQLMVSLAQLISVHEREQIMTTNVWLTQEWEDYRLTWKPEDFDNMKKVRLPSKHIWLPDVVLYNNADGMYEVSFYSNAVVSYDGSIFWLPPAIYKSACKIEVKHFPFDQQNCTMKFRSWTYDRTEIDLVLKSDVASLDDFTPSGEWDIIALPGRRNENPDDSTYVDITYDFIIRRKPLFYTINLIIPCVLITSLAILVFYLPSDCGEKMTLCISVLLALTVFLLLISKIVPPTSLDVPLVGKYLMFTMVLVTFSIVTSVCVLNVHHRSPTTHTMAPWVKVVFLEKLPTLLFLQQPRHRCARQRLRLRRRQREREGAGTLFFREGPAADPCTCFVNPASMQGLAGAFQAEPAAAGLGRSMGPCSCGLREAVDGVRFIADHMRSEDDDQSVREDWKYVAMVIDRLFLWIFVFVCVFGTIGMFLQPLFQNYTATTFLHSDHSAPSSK
T1 sequence (O70174 31-629): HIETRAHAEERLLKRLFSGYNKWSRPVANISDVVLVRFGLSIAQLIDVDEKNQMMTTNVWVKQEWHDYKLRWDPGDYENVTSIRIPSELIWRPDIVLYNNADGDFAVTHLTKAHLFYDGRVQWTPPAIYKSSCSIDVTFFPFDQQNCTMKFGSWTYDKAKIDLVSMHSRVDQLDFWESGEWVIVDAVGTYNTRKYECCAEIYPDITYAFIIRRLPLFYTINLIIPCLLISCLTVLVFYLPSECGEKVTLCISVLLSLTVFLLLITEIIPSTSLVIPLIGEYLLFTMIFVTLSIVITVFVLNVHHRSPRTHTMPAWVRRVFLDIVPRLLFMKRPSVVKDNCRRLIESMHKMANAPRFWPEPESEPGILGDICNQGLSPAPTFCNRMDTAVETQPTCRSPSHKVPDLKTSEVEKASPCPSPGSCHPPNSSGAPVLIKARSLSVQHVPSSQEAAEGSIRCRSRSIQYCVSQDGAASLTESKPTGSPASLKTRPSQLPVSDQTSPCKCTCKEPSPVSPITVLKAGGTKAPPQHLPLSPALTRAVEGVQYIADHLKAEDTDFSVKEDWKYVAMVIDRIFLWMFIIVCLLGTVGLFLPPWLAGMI
T3 sequence (Q9ERK7 26-501, stated change not applied): as the sequence (Q9ERK7 26-501) above
T3 sequence (Q8BMN3 31-464, further chain): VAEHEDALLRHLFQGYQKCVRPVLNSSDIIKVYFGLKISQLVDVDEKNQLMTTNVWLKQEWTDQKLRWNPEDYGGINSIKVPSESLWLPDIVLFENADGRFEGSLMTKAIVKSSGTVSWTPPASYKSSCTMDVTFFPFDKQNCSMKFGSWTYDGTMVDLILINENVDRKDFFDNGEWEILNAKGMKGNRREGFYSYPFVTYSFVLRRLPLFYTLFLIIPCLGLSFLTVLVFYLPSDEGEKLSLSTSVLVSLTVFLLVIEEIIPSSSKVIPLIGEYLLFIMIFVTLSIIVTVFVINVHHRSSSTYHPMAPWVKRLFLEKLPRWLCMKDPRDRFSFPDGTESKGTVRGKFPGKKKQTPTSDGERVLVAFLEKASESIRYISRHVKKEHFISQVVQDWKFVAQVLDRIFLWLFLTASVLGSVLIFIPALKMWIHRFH
T3 sequence (Q9R0W9 31-494 L280S): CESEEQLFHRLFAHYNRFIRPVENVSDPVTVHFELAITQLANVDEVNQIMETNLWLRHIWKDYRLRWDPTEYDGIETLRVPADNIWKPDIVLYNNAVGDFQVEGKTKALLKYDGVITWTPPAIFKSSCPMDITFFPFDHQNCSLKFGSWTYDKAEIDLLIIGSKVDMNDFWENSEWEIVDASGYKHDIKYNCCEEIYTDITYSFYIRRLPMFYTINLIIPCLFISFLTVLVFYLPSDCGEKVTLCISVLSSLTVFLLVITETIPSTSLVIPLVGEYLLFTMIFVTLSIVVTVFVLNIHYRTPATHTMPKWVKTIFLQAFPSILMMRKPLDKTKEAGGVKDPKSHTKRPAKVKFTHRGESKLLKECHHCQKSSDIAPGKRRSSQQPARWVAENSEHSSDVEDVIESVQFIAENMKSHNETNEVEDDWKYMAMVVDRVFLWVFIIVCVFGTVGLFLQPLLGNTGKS
Sequence of tonically active α6^L9′S channels in VTA DA neurons (Q9ERK7 whole entry, looked up, stated change not applied): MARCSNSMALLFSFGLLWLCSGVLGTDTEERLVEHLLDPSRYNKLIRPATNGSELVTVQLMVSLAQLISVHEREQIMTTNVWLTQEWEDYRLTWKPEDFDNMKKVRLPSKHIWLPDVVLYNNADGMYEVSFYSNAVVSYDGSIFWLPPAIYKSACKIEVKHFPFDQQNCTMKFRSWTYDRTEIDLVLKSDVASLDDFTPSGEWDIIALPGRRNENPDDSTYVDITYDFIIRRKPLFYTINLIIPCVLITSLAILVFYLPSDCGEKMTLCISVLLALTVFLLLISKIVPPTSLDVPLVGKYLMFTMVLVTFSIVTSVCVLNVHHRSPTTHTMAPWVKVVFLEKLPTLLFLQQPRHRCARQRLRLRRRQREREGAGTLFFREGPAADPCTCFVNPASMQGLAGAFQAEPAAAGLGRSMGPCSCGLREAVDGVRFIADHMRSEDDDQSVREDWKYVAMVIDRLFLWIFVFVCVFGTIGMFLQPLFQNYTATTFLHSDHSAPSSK
Sequence of tonically active α6^L9′S channels in VTA DA neurons (Q9R0W9 whole entry, looked up, stated change not applied): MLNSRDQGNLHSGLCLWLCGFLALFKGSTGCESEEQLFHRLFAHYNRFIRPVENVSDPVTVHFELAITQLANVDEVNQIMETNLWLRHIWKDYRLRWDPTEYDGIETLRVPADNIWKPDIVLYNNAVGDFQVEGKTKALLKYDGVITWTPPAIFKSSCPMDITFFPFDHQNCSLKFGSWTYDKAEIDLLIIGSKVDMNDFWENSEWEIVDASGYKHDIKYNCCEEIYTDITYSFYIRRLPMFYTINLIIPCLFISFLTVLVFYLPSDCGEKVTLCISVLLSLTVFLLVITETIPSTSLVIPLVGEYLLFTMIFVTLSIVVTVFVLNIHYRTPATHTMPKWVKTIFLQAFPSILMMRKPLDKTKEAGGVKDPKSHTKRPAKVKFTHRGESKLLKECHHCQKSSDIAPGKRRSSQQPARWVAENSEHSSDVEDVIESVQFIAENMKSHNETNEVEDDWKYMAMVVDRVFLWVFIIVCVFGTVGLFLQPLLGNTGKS
Sequence of hypersensitive nicotinic receptors in α6L9′S VTA DA neurons (Q9ERK7 whole entry, looked up, stated change not applied): as the sequence (Q9ERK7 whole entry, looked up, stated change not applied) above
Sequence of hypersensitive nicotinic receptors in α6L9′S VTA DA neurons (Q9R0W9 whole entry, looked up, stated change not applied): as the sequence (Q9R0W9 whole entry, looked up, stated change not applied) above
T2 sequence (Q9R0W9 31-494): as the sequence (Q9R0W9 31-494 L280S) above, with S250L counted along it
T2 sequence (Q8BMN3 31-464, further chain): as the sequence (Q8BMN3 31-464, further chain) above
T2 sequence (Q9ERK7 26-501): as the sequence (Q9ERK7 26-501) above

In the case of `c1cncc(C2CC3CCN2CC3)c1` (racemic) [TC 2429], in the assay on nAChRs, the “%10 μM nic, Total DA release” value was 49.0% and 73.40% and 71.00%; the “Rmax (±SEM), Total DA release” value was 8.68 ± 1.25 and 12.87 ± 0.37 and 11.86 ± 0.41. In addition, in the assay on α6^L9′S mice, the locomotor activity result is recorded as “stimulated locomotor activity”. Moreover, in the assay with WT mice, the locomotor suppression result is given as “did not produce locomotor suppression”.

As to `N#Cc1cc2c(cc1[N+](=O)[O-])=NC(=O)C(=O)N=2` [CNQX, 6-cyano-7-nitroquinoxaline-2,3-dione], the “block of whole-cell responses to 1 μM nicotine” value (“block of whole-cell responses” for short) in [1] was “unaffected”. Further, in assay [2], the “effect on increased channel/membrane noise” value is recorded as “No effect”.

On to `CO[C@H]1CC=C2CCN3CCC4=C(CC(=O)OC4)[C@]23C1` [DHβE, dihydro-β-erythroidine], for which the “block of whole-cell responses” value in assay [1] is 100%. In addition, the “effect on increased channel/membrane noise” value in assay [2] is given as “completely eliminated”.

For `CCN1C[C@]2(COC(=O)c3ccccc3N3C(=O)C[C@H](C)C3=O)CC[C@H](OC)[C@@]34[C@@H]5C[C@H]6[C@H](OC)[C@@H]5[C@](O)(C[C@@H]6OC)[C@@](O)([C@@H](OC)[C@H]23)[C@@H]14` [MLA, methyllycaconitine], in assay [1], the “block of whole-cell responses” value came to 0%.

For the molecule `CNCC/C=C/c1cccnc1` [TC 2403], at α4β2* (non-α6) nAChRs, the “%10 μM nic, MII-resistant DA release” value was 81.78% and 81.48% and 90.64%; the “Rmax (±SEM), MII-resistant DA release” value is 7.26 ± 0.29 and 9.3 ± 0.33; the “agonist character at α4β2 for DA release (vs. nicotine)” value is “full agonist (vs. nicotine)”; the EC50 was 3.53 µM and 4.03 µM. On α4β2* (non-α6) nAChRs (ST/OT, WT), the “Rmax (±SEM), MII-resistant DA release” value stood at 12.32 ± 0.26 and the EC50 came out at 2.85 ± 0.35 µM. Also, on α6* nAChRs [3], the “%10 μM nic, MII-sensitive DA release” value worked out at 28.83% and the “agonist character at α6β2* for DA release (vs. nicotine)” value is listed as “no activity”. The “Rmax (±SEM), MII-sensitive DA release” value at α6* nAChRs [3] (ST/OT, WT) was 0.47 ± 0.2. For the same molecule, the EC50 at α6* nAChRs [3] (ST/OT, WT, read-out: EC50 (±SEM), MII-sensitive DA release) stood at 0.06 ± 0.18 µM. For the same molecule, at α6* nAChRs [4], the “%10 μM nic, MII-sensitive DA release” value is 44.85% and 33.01%; the “Rmax (±SEM), MII-sensitive DA release” value was 4.83 ± 0.15 and 3.43 ± 0.32; the “agonist character at the αCtxMII-sensitive receptor” value is “partial agonist”. Further, at α6* nAChRs [4] (read-out: EC50 (±SEM), MII-sensitive DA release), the EC50 is 0.19 µM and 0.1 µM. In the assay with nAChRs, the “%10 μM nic, Total DA release” value was 74.11% and 54.47% and 51.19%; the “Rmax (±SEM), Total DA release” value was 10.72 ± 0.61 and 10.57 ± 0.74; the half-maximal effective concentration (EC50) was 0.7 µM and 0.82 µM. In the assay with nAChRs (ST/OT, WT), the “Rmax (±SEM), Total DA release” value was 12.37 ± 0.93 and the EC50 was determined as 2.36 ± 0.56 µM. Also, in the assay with nAChRs (striatal synaptosomes), the “potency and efficacy for DA release, α6^L9′S relative to WT” value is “slightly more potent and had equivalent efficacy”. The locomotor activity result with α6^L9′S mice was “slight locomotor activation”.

For `NC1=N[C@H](O)[C@H]2[C@H]3O[C@]4(O)O[C@@H]([C@@H](O)[C@@]2(N1)[C@@H]4O)[C@]3(O)CO` [TTX, tetrodotoxin], the “block of whole-cell responses” value in assay [1] was “unaffected”. In assay [2], the “effect on increased channel/membrane noise” value is recorded as “No effect”.

Consider `C/C1=C/C(=O)O[C@@H]2C[C@@H](CC[C@H](C)/C=C\CC1)O[C@@](O)([C@@H]1CSC(=O)N1)C2` [latrunculin B], for which, in the assay with N2a cells, the “effect on actin-containing membrane protrusions” value is recorded as “destroyed”.

In the case of `CNC1(C)C2CCC(C2)C1(C)C` (centres unmarked) [mecamylamine], the “effect of antagonist pre-injection on nicotine-stimulated locomotor response” value (“effect of antagonist pre-injection” below) in the assay with α6^L9′S mice was “strong block of the locomotor response”.

Consider `COc1cc2nc(N3CCN(C(=O)c4ccco4)CC3)nc(N)c2cc1OC` [prazosin], for which the “effect of antagonist pre-injection” value in the assay on α6^L9′S mice is “no change was found”.

On to `CCN1CCCC1CNC(=O)c1cc(S(N)(=O)=O)ccc1OC` (centres unmarked) [sulpiride], for which, in the assay on VTA DA neurons, the “baseline firing of VTA DA cells” value was “modestly increase baseline firing” and the “effect on nicotine-induced increases in firing” value was “did not affect”. Besides, the “effect of antagonist pre-injection” value with α6^L9′S mice is listed as “partially inhibited”.

Take `COC(=O)[C@@H]1[C@H]2C[C@H]3c4[nH]c5ccccc5c4CCN3C[C@@H]2CC[C@@H]1O` [yohimbine]: in the assay with α6^L9′S mice, the “effect of antagonist pre-injection” value is “no change was found”.

Consider picrotoxin, for which the “effect on increased channel/membrane noise” value in assay [2] is “No effect”.

For the molecule α-conotoxin MII [αCtxMII], in assay [1], the “block of whole-cell responses” value is given as > 90% and the “persistence of block after washout” value came to 30 min. In addition, in the assay with LC neurons (α6* nAChRs), the “inhibition of nicotine responses in LC neurons” value is on record as “sensitive to αCtxMII”. The “effect on increased channel/membrane noise” value in assay [2] is reported as “completely eliminated”.
